Reference: patent US20110008394A1, “ACTIVE SUBSTANCES THAT INCREASE THE ACTIVATION THRESHOLD OF IMMUNE CELLS” (BASF Beauty Care Solutions France S.A.S., priority 2008, published 2011)

What was measured:
[1] = test system: CD86 on LCs/DDCs stimulated with LPS and TNFα; experiment: Response to a danger signal: LCs/DDCs simultaneously treated with active principles and stimulated with LPS + TNFα, CD86 by flow cytometry; assay type: cell-based, human; conditions: for RESIDUAL EXPRESSION OF CD86 AFTER TREATMENT: active principle alone, no stimulation; for RESIDUAL EXPRESSION OF CD86 AFTER TREATMENT / RESIDUAL EXPRESSION OF CD86 AFTER TREATMENT + STIMULATION: untreated unstimulated control = 100%; for RESPONSE CAPACITY: capacity for response to a danger signal, proportional to residual CD86 after treatment + stimulation (stimulation alone 143%); for RESIDUAL EXPRESSION OF CD86 AFTER TREATMENT + STIMULATION: simultaneous active principle and LPS 50 μg/mL + TNFα 10 μg/mL
Description: Evaluation of the immunorepressive potential of the active principles also requires a study of the capacity of the LCs/DDCs to respond to a danger signal, for example a bacterial infection, when they are treated with the said active principles. Specifically, we checked that the LCs/DDCs that are simultaneously treated with the active principles and activated by a danger signal are still competent in their function of recognition of danger signals. To do this, we checked that the LDs/DDCs simultaneously treated with the active principles and stimulated with LPS and TNFα are capable of overexpressing the co-stimulation molecule CD86 after this stimulation.
(§1) The flow cytometry study proceeds in the following manner:
(§2) 1/ The immature LCs/DDCs are generated as described in Example 1 and step 3.
2/ The cells are inoculated in P24-well plates, at a rate of 400 000 cells per cm^2, and in the culture medium described in Example 3. A mixture of LPS (at 50 μg/mL advantageously) and of TNFα (at 10 μg/mL advantageously) is added to the said culture medium. Simultaneously, the cells are treated with the active principles as described in Example 3.
3/ The cells that have been simultaneously treated with the active principles and stimulated with LPS and TNFα are analysed by flow cytometry, as described in Example 6, to quantify the residual expression of the molecule CD86 after “treatment+stimulation”.
The results are expressed in the following manner: the control not treated with the active agent and not stimulated with LPS+TNFα is referenced at 100% expression of the molecule CD86, and the tests are expressed as the residual expression of the molecule CD86 after “treatment”, after “treatment+stimulation” and “stimulation”. We also calculated the level of capacity for response to a danger signal, which is proportional to the residual expression of CD86 after treatment+stimulation.

[2] = test system: messenger RNAs coding for CD86 in immature LCs/DDCs; experiment: Expression of messenger RNAs coding for CD86 in treated immature LCs/DDCs, quantitative RT-PCR; assay type: cell-based, human; conditions: 10^-7M, 24 hour treatment; for RESIDUAL EXPRESSION OF CD86: messenger RNA relative to actin, untreated control = 100%; for LEVEL OF IMMUNOREPRESSION: from CD86 messenger RNA, closer to 1 = stronger
From the text: Quantitative RT-PCR makes it possible to quantify the expression of the messenger RNAs coding for the protein CD86 in the LCs/DDCs treated or not treated with the said active agents.
The study of the immunorepressive properties of the cosmetic active principles by quantitative RT-PCR proceeds in the following manner:
as §2
(§3) 2/ The cells are inoculated in P24-well plates, at a rate of 400 000 cells per cm^2, and in the culture medium described in Example 3. The treatment of the cells with the active principles is described in Example 3.
3/ After treatment with the active principles, the cells are recovered and stored, for example by dry-freezing at −80° C. after rinsing with pH 7.4 phosphate buffer.
4/ The total RNA of the cells is extracted, for example using a 96-well extraction kit on silica columns, and assayed on e96-well spectrophotometer at 260 nm (purity indicator: assay of the proteins at 280 nm). The RNAs are diluted, for example, to 5 ng/μl.
5/ The […] RT-PCR in step 1 is performed, for example, on 50 ng of initial RNA on a 96-well plate, on the genes for actin and for the molecule CD86. The specific primers for each gene are specified in Table 7 below and are used, for example, at 0.5 μM.
The amplification parameters were advantageously the following: the real-time RT-PCR technique is performed with the Quanti Tect SYBR Green RT-PCR kit (Qiagen, France) on the wells containing the messenger RNA, in an Opticon thermocycler, which performs the amplification cycles. The reverse transcription (RT) is performed for 30 minutes at 50° C., followed by 15 minutes at 95° C. to inhibit the reverse transcriptase, to activate the polymerase and to denature the complementary DNA (cDNA) obtained. 50 cycles of chain polymerization (PCR) are performed (15 seconds at 95° C., 30 seconds at 60° C., 30 seconds at 72° C.). At the end of each cycle, the fluorescence, which is proportional to the number of amplified fragments, is read. The level of expression is defined by the ratio of expression of each gene relative to actin.
The results are expressed in the following manner: the untreated control is referenced at 100% expression of the messenger RNAs coding for the molecule CD86, and the tests are expressed as the level of expression of the messenger RNAs coding for CD86 as a percentage of variation relative to those obtained for the negative control.

[3] = test system: immature LCs/DDCs; experiment: Cell viability (cytotoxicity) test, 7-AAD dye, flow cytometry; assay type: cell-based; conditions: 24 hour treatment
Description: The active principles have a cytotoxic effect when the cell viability is less than 75% after treatment with the said active agents.
The LCs/DDCs, as described in Example 1 and step 3, are inoculated into P96-well plates, at a rate of 200 000 cells/well, and in the culture medium described in Example 3. The treatment of the cells with the active principles is described in Example 3.
After treatment with the said active principles, the cells are incubated with 5 μl of dye 7-AAD (7-aminoactinomycin D) per well. After incubation for 5 minutes, the cells are analysed by flow cytometry.
The cell viability is expressed as a percentage of viable cells or negative 7-AAD, the dye not penetrating the membranes that are impermeable. This analysis technique also makes it possible to visualize the cells positively marked with 7-AAD, i.e. the cells that have undergone a cytotoxic effect via the active agent.
The negative controls are either the culture medium alone, or the culture medium containing the solvent used during the process for extracting the extracts tested at the concentration equivalent to that of the active agents tested. The reference positive control used in order to induce a mortality of the LCs/DDCs is camptothecin at a concentration of 4 μM final.

[4] = test system: CD86 on LCs/DDCs stimulated with LPS and TNFα; experiment: Response to a danger signal: LCs/DDCs pretreated with active principles, then stimulated with LPS + TNFα without them, CD86 by flow cytometry; assay type: cell-based, human; conditions: for RESPONSE CAPACITY: capacity for response to a danger signal, proportional to residual CD86 after pretreatment + stimulation (stimulation alone 143%); for RESIDUAL EXPRESSION OF CD86 AFTER PRETREATMENT + STIMULATION: pretreated, then recultured 48 hours without active principle with LPS 50 μg/mL + TNFα 10 μg/mL, untreated unstimulated control = 100%
From the text: As in Example 8, we checked that the LCs/DDCs are capable of responding to a danger signal, for example a bacterial infection, when they have been treated beforehand with the active principles and when they are no longer being treated. To do this, we checked that the LCs/DDCs treated with the said active principles, and then stimulated with LPS and TNFα (in the absence of the active principles), are capable of overexpressing the co-stimulation molecule CD86 after this stimulation.
as §1, §2, §3
3/ The cells treated with the active principles are then recultured, without the active principles and in the culture medium described in Example 3, for a further 48 hours. A mixture of LPS (at 50 μg/mL advantageously) and of TNFα (at 10 μg/mL advantageously) is added to the said culture medium. The cells are then analysed by flow cytometry, as described in Example 6, to quantify the residual expression of the molecule CD86 after “pretreatment+stimulation”.
The results are expressed in the following manner: the control not treated with the active agent and not stimulated with LPS and TNFα is referenced at 100% expression of the molecule CD86, and the tests are expressed as the residual expression of the molecule CD86 after “stimulation” and after “pretreatment+stimulation”. We also calculated the level of capacity for response to a danger signal, which is proportional to the residual expression of CD86 after pretreatment+stimulation.

[5] = test system: CD86 on immature LCs/DDCs; experiment: Protein expression of CD86 on treated immature LCs/DDCs, flow cytometry; assay type: cell-based, human; conditions: for RESIDUAL EXPRESSION OF CD86: protein, untreated control = 100%; for LEVEL OF IMMUNOREPRESSION: inversely proportional to residual CD86 protein expression, closer to 1 = stronger
Description: The study of the immunorepressive properties of the cosmetic active principles by flow cytometry proceeds in the following manner:
as §2
2/ The cells are inoculated in P24-well plates, at a rate of 400 000 cells per cm^2, and in the culture medium described in Example 3.
4/ The cells are then incubated for 30 minutes with an anti-CD86 monoclonal antibody coupled to a fluorochrome, such as phycoerythrin (advantageously 10 μl of anti-CD86 antibody/well). The negative marking control corresponds to the IgG1 control isotype. After this marking step, the cells are rinsed with the said marking buffer, and then analysed by flow cytometry.
The level of immunorepression, which is inversely proportional to the residual expression of CD86, was also calculated.

[6] = 10^-7M, % viable (7-AAD negative) cells
[7] = 5 × 1^0^-^7M, dose/effect study

Compound	RESIDUAL EXPRESSION OF CD86 AFTER TREATMENT [1] [%]	RESPONSE CAPACITY [1]	RESIDUAL EXPRESSION OF CD86 AFTER TREATMENT + STIMULATION [1] [%]	RESIDUAL EXPRESSION OF CD86 [2] [%]	LEVEL OF IMMUNOREPRESSION [2]	CYTOTOXIC EFFECT ([3]; 10^-7M)	CELL VIABILITY [3, 6] [%]	RESPONSE CAPACITY [4]	RESIDUAL EXPRESSION OF CD86 AFTER PRETREATMENT + STIMULATION [4] [%]	RESIDUAL EXPRESSION OF CD86 [5, 7] [%]	RESIDUAL EXPRESSION OF CD86 ([5]; 5 × 10^-8M, dose/effect study) [%]	RESIDUAL EXPRESSION OF CD86 ([5]; 10^-6M, dose/effect study) [%]	RESIDUAL EXPRESSION OF CD86 ([5]; 10^-7M, 24 hour treatment) [%]	LEVEL OF IMMUNOREPRESSION ([5]; 10^-7M, 24 hour treatment)	CELL VIABILITY ([3]; 3 μm, positive control) [%]	CYTOTOXIC EFFECT ([3]; 3 μm, positive control)	RESIDUAL EXPRESSION OF CD86 ([5]; 10^-8M, 24 hour treatment) [%]	LEVEL OF IMMUNOREPRESSION ([5]; 10^-8M, 24 hour treatment)
COc1cc2c(cc1OC)-c1cc3cc(OC)c(OC)cc3c(=O)n1CC2 [8-Oxopseudopalmatine]	81	0.85	121	59	0.41	NO (The active principles have a cytotoxic effect when the cell viability is less than 75% after treatment with the said active agents)	94	0.89	127	92	100	85	81	0.14				
CC[C@@]1(O)C(=O)OCc2c1cc1n(c2=O)Cc2cc3ccccc3nc2-1 [Camptothecin, reference compound]															35	YES (The active principles have a cytotoxic effect when the cell viability is less than 75% after treatment with the said active agents)		
C[C@@H]1C[C@H]2[C@@H]3CCC4=CC(=O)C=C[C@]4(C)[C@@]3(F)[C@@H](O)C[C@]2(C)[C@@]1(O)C(=O)CO [Dexamethasone, reference compound]	50	0.52	75					0.91	130								50	0.5
O=C1C=C2C=C[C@@H]3C[C@@]2(O1)[C@H]1CCCCN31 [Securinine]	83	0.98	140	74	0.26	NO (The active principles have a cytotoxic effect when the cell viability is less than 75% after treatment with the said active agents)	94	0.88	126	100	90	100	83	0.10				
Foliosidine acetonide	85	0.81	116	91	0.09	NO (The active principles have a cytotoxic effect when the cell viability is less than 75% after treatment with the said active agents)	>95	0.84	120	80	85	83	85	0.17				
